Here are results for 18 compounds from patent US10464964B2, “Galactoside inhibitor of galectins” (Galecto Biotech AB, priority 2015, dated 2019).

≈ marks a conversion by molar mass, not a printed value. Where two headings read alike, the source gives them in different places. Bounds are passed on as bounds.

The target in one data set is Galectin 1 (Homo sapiens, UniProt P09382). Put plainly: fluorescence anisotropy assay, inhibition of galectin / fluorescein tagged saccharide probe interaction. (In general: In fluorescence polarisation assays a small probe gives low polarisation when free and higher when bound to something large.)
A further data set concerns the target galectin-3 (Homo sapiens, UniProt P17931). The description is as above.
A further data set can be described thus: Solubility. The data set is classed as physicochemical.
The test system of a further data set is galectins. The following applies: cited from earlier work.
The mark [1] stands for this setting: aqueous buffer, 0.1 M phosphate buffer pH 6.5, read-out: Solubility buffer.
Where [2] appears, read: water, read-out: Solubility water.

Sequence of galectin-3 (P17931 whole entry): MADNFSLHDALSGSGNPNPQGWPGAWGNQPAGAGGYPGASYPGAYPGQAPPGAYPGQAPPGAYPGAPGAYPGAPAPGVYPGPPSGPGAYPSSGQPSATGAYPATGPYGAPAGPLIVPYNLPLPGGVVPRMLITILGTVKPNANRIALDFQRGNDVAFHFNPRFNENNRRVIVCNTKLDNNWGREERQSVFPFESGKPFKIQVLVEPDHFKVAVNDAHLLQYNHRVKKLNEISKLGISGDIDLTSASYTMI
Sequence of Galectin 1 (P09382 whole entry): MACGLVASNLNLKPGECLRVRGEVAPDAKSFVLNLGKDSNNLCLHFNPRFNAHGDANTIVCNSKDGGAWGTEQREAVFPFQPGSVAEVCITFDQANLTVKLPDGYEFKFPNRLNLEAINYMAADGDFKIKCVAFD

Broadly, the Kd is the concentration at which binding is half-saturated. A word on the solubility: it is how much of the substance goes into solution per volume. Turning to `OCC1O[C@@H](SC2O[C@H](CO)C(O)C(n3cc(-c4ccc(F)cn4)nn3)[C@H]2O)C(O)C(n2cc(-c3ccc(F)cn3)nn2)[C@H]1O` (stereo in doubt) [Example S4a, 3,3′-Dideoxy-3,3′-bis-[4-(5-fluoro-2-pyridin-2-yl)-1H-1,2,3-triazol-1-yl]-1,1′-sulfanediyl-di-β-D-galactopyranoside], the Kd on Galectin 1 worked out at 0.021 µM; on galectin-3 it was 0.01 µM. Further, the solubility is 2600 µg/mL (≈ 4000 µM) in the data set “Solubility” (setting [1]) and 4300 µg/mL (≈ 6610 µM) in “Solubility” (setting [2]).

As for `Cn1cncc1-c1cn(C2C(O)[C@H](SC3O[C@H](CO)C(O)C(n4cc(-c5cncn5C)nn4)[C@H]3O)OC(CO)[C@@H]2O)nn1` (stereo in doubt) [Example S4c, 3,3′-Dideoxy-3,3′-bis-[4-(1-methyl-1H-imidazol-5-yl)-1H-1,2,3-triazol-1-yl]-1,1′-sulfanediyl-di-β-D-galactopyranoside], the results for the dissociation constant (Kd) on Galectin 1 and on galectin-3 were 0.6 µM and 0.131 µM, respectively.

As for `OCC1O[C@@H](SC2O[C@H](CO)C(O)C(n3cc(-c4ncc(C(F)(F)F)cc4Cl)nn3)[C@H]2O)C(O)C(n2cc(-c3ncc(C(F)(F)F)cc3Cl)nn2)[C@H]1O` (stereo in doubt) [Example S4d, 3,3′-Dideoxy-3,3′-bis-[4-(3-chloro-5-trifluoromethyl-pyridin-2-yl)-1H-1,2,3-triazol-1-yl]-1,1′-sulfanediyl-di-β-D-galactopyranoside], the Kd at Galectin 1 was 0.74 µM; on galectin-3 it was 0.025 µM. The solubility in “Solubility” (setting [1]) came out at 200 µg/mL (≈ 244 µM).

Regarding `OCC1O[C@@H](SC2O[C@H](CO)C(O)C(n3cc(-c4ccccn4)nn3)[C@H]2O)C(O)C(n2cc(-c3ccccn3)nn2)[C@H]1O` (stereo in doubt) [Example S4f, 3,3′-Dideoxy-3,3′-bis-[4-(pyridin-2-yl)-1H-1,2,3-triazol-1-yl]-1,1′-sulfanediyl-di-β-D-galactopyranoside], the Kd was 0.21 µM on Galectin 1 and 0.042 µM at galectin-3. For the same compound, in the data set “Solubility” (setting [1]), the solubility turned out to be 450 µg/mL (≈ 732 µM).

For the compound `OCC1O[C@@H](SC2O[C@H](CO)C(O)C(n3cc(-c4ccc(F)cn4)nn3)[C@H]2O)C(O)C(n2cc(-c3cc(F)c(F)c(F)c3)nn2)[C@H]1O` (stereo in doubt) [Example S7, 3,3′-Dideoxy-3-[4-(5-fluoropyridin-2-yl)-1H-1,2,3-triazol-1-yl]-3′-[4-(3,4,5-trifluorophenyl)-1H-1,2,3-triazol-1-yl]-1,1′-sulfanediyl-di-β-D-galactopyranoside], the values for the dissociation constant Kd at Galectin 1 and on galectin-3 were 0.04 µM and less than 0.005 µM, respectively.

For the compound `OCC1O[C@@H](SC2O[C@H](CO)C(O)C(n3cc(-c4cccnc4)nn3)[C@H]2O)C(O)C(n2cc(-c3cc(F)c(F)c(F)c3)nn2)[C@H]1O` (stereo in doubt) [Example S8a, 3,3′-3-[4-(pyridin-3-yl)-1H-1,2,3-triazol-1-yl]-3′-[4-(3,4,5-trifluorophenyl)-1H-1,2,3-triazol-1-yl]-1,1′-sulfanediyl-di-β-D-galactopyranoside], the Kd at Galectin 1 turned out to be 0.038 µM; on galectin-3, 0.002 µM. For the same compound, the solubility in “Solubility” (setting [1]) came out at 41 µg/mL (≈ 61.4 µM).

On to `OCC1O[C@@H](SC2O[C@H](CO)C(O)C(n3cc(-c4cncnc4)nn3)[C@H]2O)C(O)C(n2cc(-c3cc(F)c(F)c(F)c3)nn2)[C@H]1O` (stereo in doubt) [Example S8b, 3,3′-Dideoxy-3-[4-(1,3-pyrimidin-5-yl)-1H-1,2,3-triazol-1-yl]-3′-[4-(3,4,5-trifluorophenyl)-1H-1,2,3-triazol-1-yl]-1,1′-sulfanediyl-di-β-D-galactopyranoside], for which the dissociation constant Kd at Galectin 1 is 0.08 µM; on galectin-3, less than 0.002 µM. Further, in the data set “Solubility” (setting [1]), the solubility came out at 360 µg/mL (≈ 538 µM).

In the case of `OCC1O[C@@H](SC2O[C@H](CO)C(O)C(n3cc(-c4ncccn4)nn3)[C@H]2O)C(O)C(n2cc(-c3cc(F)c(F)c(F)c3)nn2)[C@H]1O` (stereo in doubt) [Example S8c, 3,3′-Dideoxy-3-[4-(1,3-pyrimidin-2-yl)-1H-1,2,3-triazol-1-yl]-3′-[4-(3,4,5-trifluorophenyl)-1H-1,2,3-triazol-1-yl]-1,1′-sulfanediyl-di-β-D-galactopyranoside], the dissociation constant Kd at Galectin 1 was 0.07 µM; at galectin-3 it was less than 0.002 µM. Also, the solubility in “Solubility” (setting [1]) is 4600 µg/mL (≈ 6880 µM).

In the case of `OCC1O[C@@H](SC2O[C@H](CO)C(O)C(n3cc(-c4ccccn4)nn3)[C@H]2O)C(O)C(n2cc(-c3cc(F)c(F)c(F)c3)nn2)[C@H]1O` (stereo in doubt) [Example S8d, 3,3′-Dideoxy-3-[4-(pyridin-2-yl)-1H-1,2,3-triazol-1-yl]-3′-[4-(3,4,5-trifluorophenyl)-1H-1,2,3-triazol-1-yl]-1,1′-sulfanediyl-di-β-D-galactopyranoside], the dissociation constant (Kd) is 0.038 µM at Galectin 1 and 0.001 µM at galectin-3. Also, the solubility in “Solubility” (setting [1]) stood at 1400 µg/mL (≈ 2100 µM).

As to `OCC1O[C@@H](SC2O[C@H](CO)C(O)C(n3cc(-c4ccncc4)nn3)[C@H]2O)C(O)C(n2cc(-c3cc(F)c(F)c(F)c3)nn2)[C@H]1O` (stereo in doubt) [Example S8e, 3,3′-Dideoxy-3-[4-(pyridin-4-yl)-1H-1,2,3-triazol-1-yl]-3′-[4-(3,4,5-trifluorophenyl)-1H-1,2,3-triazol-1-yl]-1,1′-sulfanediyl-di-β-D-galactopyranoside], the Kd stood at 0.072 µM on Galectin 1 and 0.001 µM on galectin-3. Further, the solubility in “Solubility” (setting [1]) worked out at 1300 µg/mL (≈ 1950 µM).

In the case of `CC(=O)Nc1ccc(-c2cn(C3C(O)[C@@H](CO)OC(S[C@@H]4OC(CO)[C@H](O)C(n5cc(-c6cc(F)c(F)c(F)c6)nn5)C4O)[C@@H]3O)nn2)cn1` (stereo in doubt) [Example S8f, 3-[4-((2-acetamid-N-yl)-pyridin-5-yl)-3,3′-dideoxy-1H-1,2,3-triazol-1-yl]-3′-[4-(3,4,5-trifluorophenyl)-1H-1,2,3-triazol-1-yl]-1,1′-sulfanediyl-di-β-D-galactopyranoside], the equilibrium dissociation constant (Kd) at Galectin 1 turned out to be 0.149 µM; on galectin-3 it was 0.005 µM. The solubility in the data set “Solubility” (setting [1]) is 770 µg/mL (≈ 1060 µM).

`Nc1ccc(-c2cn(C3C(O)[C@@H](CO)OC(S[C@@H]4OC(CO)[C@H](O)C(n5cc(-c6cc(F)c(F)c(F)c6)nn5)C4O)[C@@H]3O)nn2)cn1` (stereo in doubt) [Example S8g, 3-[4-(2-aminopyridin-5-yl)-3,3′-dideoxy-1H-1,2,3-triazol-1-yl]-3′-[4-(3,4,5-trifluorophenyl)-1H-1,2,3-triazol-1-yl]-1,1′-sulfanediyl-di-β-D-galactopyranoside]: the dissociation constant Kd was 0.034 µM on Galectin 1 and less than 0.002 µM on galectin-3. In addition, the solubility in the data set “Solubility” (setting [1]) came out at 1800 µg/mL (≈ 2640 µM).

On to `OCC1O[C@@H](SC2O[C@H](CO)C(O)C(n3cc(-c4ncc(F)cn4)nn3)[C@H]2O)C(O)C(n2cc(-c3cc(F)c(F)c(F)c3)nn2)[C@H]1O` (stereo in doubt) [Example S8h, 3,3′-Dideoxy-3-[4-(5-fluoro-1,3-pyrimidin-2-yl)-1H-1,2,3-triazol-1-yl]-3′-[4-(3,4,5-trifluorophenyl)-1H-1,2,3-triazol-1-yl]-1,1′-sulfanediyl-di-β-D-galactopyranoside], for which the Kd on Galectin 1 is 0.055 µM; on galectin-3, less than 0.002 µM. In addition, the solubility in the data set “Solubility” (setting [1]) stood at 3300 µg/mL (≈ 4810 µM).

With `O=C[C@H](O)[C@@H](O)[C@@H](O)[C@H](O)CO` [D-galactose], the “affinity, times lower than lactose” value with galectins (relative to lactose) was 50-100 times.

`COc1ccc(-c2cn(C3C(O)[C@@H](CO)OC(S[C@@H]4OC(CO)[C@H](O)[C@H](n5cc(-c6ccc(OC)nc6)nn5)C4O)[C@@H]3O)nn2)cn1` (stereo partly drawn) [Example S4b, 3,3′-Dideoxy-3,3′-bis-[4-(6-methoxypyridin-3-yl)-1H-1,2,3-triazol-1-yl]-1,1′-sulfanediyl-di-β-D-galactopyranoside]: the dissociation constant (Kd) came out at 0.12 µM at Galectin 1 and 0.012 µM at galectin-3.

`OCC1O[C@@H](S[C@@H]2O[C@H](CO)C(O)C(n3cc(-c4cncnc4)nn3)[C@H]2O)C(O)[C@@H](n2cc(-c3cncnc3)nn2)[C@H]1O` (stereo partly drawn) [Example S4e, 3,3′-Dideoxy-3,3′-bis-[4-(pyrimidin-5-yl)-1H-1,2,3-triazol-1-yl]-1,1′-sulfanediyl-di-β-D-galactopyranoside]: the equilibrium dissociation constant (Kd) was determined as 0.39 µM at Galectin 1 and 0.044 µM at galectin-3. In addition, the solubility in the data set “Solubility” (setting [1]) stood at 7 µg/mL (≈ 11.4 µM).

As for `OCC1O[C@@H](SC2O[C@H](CO)C(O)C(n3cc(-c4cccc(F)c4)nn3)[C@H]2O)C(O)[C@@H](n2cc(-c3cccc(F)c3)nn2)[C@H]1O` (stereo partly drawn) [Ref 1, 3,3′-bis-[4-(3-fluorophenyl)-1H-1,2,3-triazol-1-yl]-1,1′-sulfanediyl-di-β-D-galactopyranoside, reference compound], the solubility in the data set “Solubility” (setting [2]) was 400 µg/mL (≈ 617 µM).

`OC[C@H]1O[C@@H](O[C@H]2[C@H](O)[C@@H](O)C(O)O[C@@H]2CO)[C@H](O)[C@@H](O)[C@H]1O` (stereo partly shown) [lactose]: the Kd at galectins (all galectins) was 500 to 1000 µM.
